Measured values: patent publication US6818203B2, “Use of perfluoroalkyl-containing metal complexes as contrast media in MR-imaging for visualization of plaque, tumors and necroses” (Schering Aktiengesellschaft, priority 2000, dated 2004)
One block for each molecule: values may come before it.

Legend:
[1] = critical micelle formation concentration (CMC) by tensiometry; format: physicochemical
Method: In aqueous systems, these amphiphilic molecules show the properties that are characteristic of standard surfactants (such as, e.g., sodium dodecylsulfate, SDS). They thus reduce the surface tension of water. By tensiometry, the so-called CMC (critical micelle formation concentration in mol/l) can be determined. In this respect, the surface tension is determined based on the concentration of the substance to be measured. The CMC can be calculated from the plot of the surface tension function (c) that is obtained. The critical micelle formation concentration of the compounds according to the invention must be <10^−3 mol/l, preferably <10^−4 mol/l.
Both the determination of the CMC and the photon correlation spectroscopy are described in H.-D. Dörfler, “Grenzflächen- und Kolloidchemie [Interface and Colloid Chemistry],” Weinheim, New York, Basel, Cambridge, Tokyo, VSH 1994.

[2] = organ distribution (including lymph node concentration) after intravenous administration in rats; format: in vivo; conditions: 24 hours after administration
Method: (§1) After intravenous administration of 100 μmol of total gadolinium/kg of body weight of a polar Gd-chelate with perfluorinated side chains (metal complex X) in rats, the metal content in various organs as well as in the lymph nodes (pooled as mesenteric and peripheral lymph nodes) was determined 24 hours after administration (MW, n=2).
as §1, with “200” for “100”, “V)” for “X)”
as §1, with “200” for “100”, “III)” for “X)”

[3] = system: iliac and inguinal lymph nodes; assay: lymph node visualization (MRT) after intravenous administration in guinea pigs with stimulated lymph nodes; format: in vivo; conditions: 200 μmol of Gd/kg i.v.
Method: By way of example, the pictures in FIG. 14 show MR images of iliac and inguinal lymph nodes precontrast and up to 24 hours after intravenous administration of 200 μmol of Gd/kg of body weight of metal complex XIV in guinea pigs with stimulated lymph nodes (Freund adjuvant). […] The enhancement was 127% at the time of 60 minutes p.i.

[4] = Mesenteric lymph nodes, 100 μmol Gd/kg i.v.
[5] = Peripheral lymph nodes, 100 μmol Gd/kg i.v.
[6] = Mesenteric lymph nodes, 200 μmol Gd/kg i.v.
[7] = Peripheral lymph nodes, 200 μmol Gd/kg i.v.

CMC (critical micelle formation concentration) [1]: 7.9e-06 mol/L | metal content ([2]; Blood, 100 μmol Gd/kg i.v.): 1 μmol Gd/L | metal content, % Dose ([2]; Blood, 100 μmol Gd/kg i.v.): 0.01 % Dose | metal content ([2]; Brain, 100 μmol Gd/kg i.v.): 1 μmol Gd/L | metal content, % Dose ([2]; Brain, 100 μmol Gd/kg i.v.): 0.01 % Dose | metal content ([2]; Carcass, 100 μmol Gd/kg i.v.): 192 μmol Gd/L | metal content, % Dose ([2]; Carcass, 100 μmol Gd/kg i.v.): 34.01 % Dose | metal content ([2]; Femur, 100 μmol Gd/kg i.v.): 3 μmol Gd/L | metal content, % Dose ([2]; Femur, 100 μmol Gd/kg i.v.): 0.01 % Dose | metal content ([2]; Heart, 100 μmol Gd/kg i.v.): 3 μmol Gd/L | metal content, % Dose ([2]; Heart, 100 μmol Gd/kg i.v.): 0.01 % Dose | metal content ([2]; Intestine, 100 μmol Gd/kg i.v.): 65 μmol Gd/L | metal content, % Dose ([2]; Intestine, 100 μmol Gd/kg i.v.): 1.22 % Dose | metal content ([2]; Kidneys, 100 μmol Gd/kg i.v.): 150 μmol Gd/L | metal content, % Dose ([2]; Kidneys, 100 μmol Gd/kg i.v.): 0.65 % Dose | metal content ([2]; Liver, 100 μmol Gd/kg i.v.): 104 μmol Gd/L | metal content, % Dose ([2]; Liver, 100 μmol Gd/kg i.v.): 2.34 % Dose | metal content ([2]; Lung, 100 μmol Gd/kg i.v.): 18 μmol Gd/L | metal content, % Dose ([2]; Lung, 100 μmol Gd/kg i.v.): 0.05 % Dose | metal content [2, 4]: 19 μmol Gd/L | metal content, % Dose [2, 4]: 0.01 % Dose | metal content ([2]; Muscle, 100 μmol Gd/kg i.v.): 1 μmol Gd/L | metal content, % Dose ([2]; Muscle, 100 μmol Gd/kg i.v.): 0.00 % Dose | metal content ([2]; Pancreas, 100 μmol Gd/kg i.v.): 6 μmol Gd/L | metal content, % Dose ([2]; Pancreas, 100 μmol Gd/kg i.v.): 0.02 % Dose | metal content [2, 5]: 11 μmol Gd/L | metal content, % Dose [2, 5]: 0.01 % Dose | metal content ([2]; Spleen, 100 μmol Gd/kg i.v.): 54 μmol Gd/L | metal content, % Dose ([2]; Spleen, 100 μmol Gd/kg i.v.): 0.07 % Dose | metal content ([2]; Stomach, 100 μmol Gd/kg i.v.): 49 μmol Gd/L | metal content, % Dose ([2]; Stomach, 100 μmol Gd/kg i.v.): 0.18 % Dose | metal content, % Dose ([2]; Total, 100 μmol Gd/kg i.v.): 38.58 % Dose
SMILES: COCCN(CCOCCC(F)(F)C(F)(F)C(F)(F)C(F)(F)C(F)(F)C(F)(F)C(F)(F)C(F)(F)F)C(=O)CNC(=O)C(C)N1CCN(CC(=O)[O-])CCN(CC(=O)[O-])CCN(CC(=O)[O-])CC1.[Gd+3] (stereo not drawn) [metal complex X]

CMC (critical micelle formation concentration) [1]: 7.06e-06 mol/L | metal content ([2]; Blood, 200 μmol Gd/kg i.v.): 83 μmol Gd/L | metal content, % Dose ([2]; Blood, 200 μmol Gd/kg i.v.): 1.15 % Dose | metal content ([2]; Brain, 200 μmol Gd/kg i.v.): 10 μmol Gd/L | metal content, % Dose ([2]; Brain, 200 μmol Gd/kg i.v.): 0.05 % Dose | metal content ([2]; Carcass, 200 μmol Gd/kg i.v.): 242 μmol Gd/L | metal content, % Dose ([2]; Carcass, 200 μmol Gd/kg i.v.): 36.30 % Dose | metal content ([2]; Femur, 200 μmol Gd/kg i.v.): 76 μmol Gd/L | metal content, % Dose ([2]; Femur, 200 μmol Gd/kg i.v.): 0.32 % Dose | metal content ([2]; Heart, 200 μmol Gd/kg i.v.): 82 μmol Gd/L | metal content, % Dose ([2]; Heart, 200 μmol Gd/kg i.v.): 0.13 % Dose | metal content ([2]; Intestine, 200 μmol Gd/kg i.v.): 230 μmol Gd/L | metal content, % Dose ([2]; Intestine, 200 μmol Gd/kg i.v.): 3.56 % Dose | metal content ([2]; Kidneys, 200 μmol Gd/kg i.v.): 489 μmol Gd/L | metal content, % Dose ([2]; Kidneys, 200 μmol Gd/kg i.v.): 1.97 % Dose | metal content ([2]; Liver, 200 μmol Gd/kg i.v.): 1222 μmol Gd/L | metal content, % Dose ([2]; Liver, 200 μmol Gd/kg i.v.): 26.28 % Dose | metal content ([2]; Lung, 200 μmol Gd/kg i.v.): 338 μmol Gd/L | metal content, % Dose ([2]; Lung, 200 μmol Gd/kg i.v.): 0.96 % Dose | metal content [2, 6]: 455 μmol Gd/L | metal content, % Dose [2, 6]: 0.33 % Dose | metal content ([2]; Muscle, 200 μmol Gd/kg i.v.): 28 μmol Gd/L | metal content, % Dose ([2]; Muscle, 200 μmol Gd/kg i.v.): 0.04 % Dose | metal content ([2]; Pancreas, 200 μmol Gd/kg i.v.): 203 μmol Gd/L | metal content, % Dose ([2]; Pancreas, 200 μmol Gd/kg i.v.): 0.48 % Dose | metal content [2, 7]: 279 μmol Gd/L | metal content, % Dose [2, 7]: 0.18 % Dose | metal content ([2]; Spleen, 200 μmol Gd/kg i.v.): 464 μmol Gd/L | metal content, % Dose ([2]; Spleen, 200 μmol Gd/kg i.v.): 0.89 % Dose | metal content ([2]; Stomach, 200 μmol Gd/kg i.v.): 165 μmol Gd/L | metal content, % Dose ([2]; Stomach, 200 μmol Gd/kg i.v.): 0.57 % Dose | metal content, % Dose ([2]; Total, 200 μmol Gd/kg i.v.): 73.20 % Dose
SMILES: O=C([O-])CN1CCN(CC(=O)[O-])CCN(CC(O)CNC(=O)CCCC(=O)N2CCN(C(F)(F)C(F)(F)C(F)(F)C(F)(F)C(F)(F)C(F)(F)C(F)(F)C(F)(F)F)CC2)CCN(CC(=O)[O-])CC1.[Gd+3] (stereo not drawn) [metal complex III]

CMC (critical micelle formation concentration) [1]: 0.00089 mol/L
SMILES: CC(C(=O)NCC(=O)NCC(=O)N1CCN(C(=O)CNC(=O)CNC(=O)C(C)N2CCN(CC(=O)[O-])CCN(CC(=O)[O-])CCN(CC(=O)[O-])CC2)CCN(C(=O)COCCC(F)(F)C(F)(F)C(F)(F)C(F)(F)C(F)(F)C(F)(F)C(F)(F)C(F)(F)F)CCN(C(=O)CNC(=O)CNC(=O)C(C)N2CCN(CC(=O)[O-])CCN(CC(=O)[O-])CCN(CC(=O)[O-])CC2)CC1)N1CCN(CC(=O)[O-])CCN(CC(=O)[O-])CCN(CC(=O)[O-])CC1.[Gd+3].[Gd+3].[Gd+3] (stereo not drawn) [metal complex XIV, 1,4,7-Tris{1,4,7-tris(N-(carboxylatomethyl)-10-[N-1-methyl-3,6-diaza-2,5,8-trioxooctane-1,8-diyl]-1,4,7,10-tetraazacyclododecane, Gdcomplex}-10-N-2H,2H,4H,4H,5H,5H-3-oxa-perfluoro-tridecanoyl]-1,4,7,10-tetraazacyclo-dodecane, Gd complex]
enhancement in lymph node tissue ([3]; 60 minutes p.i.): 127% | signal in healthy lymph node tissue (T1-weighted gradient-echo images) ([3]; very shortly after injection): strong signal rise

CMC (critical micelle formation concentration) [1]: 3.9e-06 mol/L | metal content ([2]; Blood, 200 μmol Gd/kg i.v.): 15 μmol Gd/L | metal content, % Dose ([2]; Blood, 200 μmol Gd/kg i.v.): 0.18 % Dose | metal content ([2]; Brain, 200 μmol Gd/kg i.v.): 4 μmol Gd/L | metal content, % Dose ([2]; Brain, 200 μmol Gd/kg i.v.): 0.02 % Dose | metal content ([2]; Carcass, 200 μmol Gd/kg i.v.): 268 μmol Gd/L | metal content, % Dose ([2]; Carcass, 200 μmol Gd/kg i.v.): 37.93 % Dose | metal content ([2]; Femur, 200 μmol Gd/kg i.v.): 13 μmol Gd/L | metal content, % Dose ([2]; Femur, 200 μmol Gd/kg i.v.): 0.05 % Dose | metal content ([2]; Heart, 200 μmol Gd/kg i.v.): 14 μmol Gd/L | metal content, % Dose ([2]; Heart, 200 μmol Gd/kg i.v.): 0.02 % Dose | metal content ([2]; Intestine, 200 μmol Gd/kg i.v.): 113 μmol Gd/L | metal content, % Dose ([2]; Intestine, 200 μmol Gd/kg i.v.): 1.56 % Dose | metal content ([2]; Kidneys, 200 μmol Gd/kg i.v.): 436 μmol Gd/L | metal content, % Dose ([2]; Kidneys, 200 μmol Gd/kg i.v.): 1.77 % Dose | metal content ([2]; Liver, 200 μmol Gd/kg i.v.): 344 μmol Gd/L | metal content, % Dose ([2]; Liver, 200 μmol Gd/kg i.v.): 6.34 % Dose | metal content ([2]; Lung, 200 μmol Gd/kg i.v.): 62 μmol Gd/L | metal content, % Dose ([2]; Lung, 200 μmol Gd/kg i.v.): 0.17 % Dose | metal content [2, 6]: 70 μmol Gd/L | metal content, % Dose [2, 6]: 0.05 % Dose | metal content ([2]; Muscle, 200 μmol Gd/kg i.v.): 9 μmol Gd/L | metal content, % Dose ([2]; Muscle, 200 μmol Gd/kg i.v.): 0.02 % Dose | metal content ([2]; Pancreas, 200 μmol Gd/kg i.v.): 30 μmol Gd/L | metal content, % Dose ([2]; Pancreas, 200 μmol Gd/kg i.v.): 0.05 % Dose | metal content [2, 7]: 44 μmol Gd/L | metal content, % Dose [2, 7]: 0.02 % Dose | metal content ([2]; Spleen, 200 μmol Gd/kg i.v.): 116 μmol Gd/L | metal content, % Dose ([2]; Spleen, 200 μmol Gd/kg i.v.): 0.17 % Dose | metal content ([2]; Stomach, 200 μmol Gd/kg i.v.): 28 μmol Gd/L | metal content, % Dose ([2]; Stomach, 200 μmol Gd/kg i.v.): 0.08 % Dose | metal content, % Dose ([2]; Total, 200 μmol Gd/kg i.v.): 48.43 % Dose
SMILES: CC(C(=O)NCC(=O)N(CCOCCC(F)(F)C(F)(F)C(F)(F)C(F)(F)C(F)(F)C(F)(F)C(F)(F)C(F)(F)F)CC(O)CO)N1CCN(CC(=O)[O-])CCN(CC(=O)[O-])CCN(CC(=O)[O-])CC1.[Gd+3] (stereo not drawn) [metal complex V]
